Patent publication US11654140B2, “Treatment of ocular inflammatory diseases using laquinimod” (Active Biotech AB, priority 2012, dated 2023)

How the values were obtained:
[1] = test system: subject suffering from allergic conjunctivitis; test: Laquinimod for treating allergic conjunctivitis (Example 8); format: in vivo; settings: 0.2 mg-0.5 mg laquinimod/day
Experimental: (§1) In the examples 4-9 below, the administration of the composition is once daily. The administration can be repeated daily for a period of one, two, three or four days, up to 14 days, or longer as necessary.
A laquinimod composition as described herein is administered to a subject suffering from allergic conjunctivitis at 0.2 mg-0.5 mg laquinimod/day. The administration of the composition is effective to treat the subject suffering from allergic conjunctivitis. The administration of the composition is also effective to reduce intraocular inflammation in the subject. The administration of the composition is also effective to inhibit late ocular anaphylaxis in the subject. The administration of the composition is also effective reduce eosinophil infiltration into the conjunctiva of the subject.

[2] = test system: S-antigen-induced uveitis in albino rats; test: Ocular vs oral laquinimod in S-antigen-induced uveitis in albino rats, clinical score (Example 10); format: in vivo, rat; settings: once daily, 7 days
[3] = test system: subject suffering from an OID; test: Laquinimod for treating OID (Example 9); format: in vivo; settings: laquinimod composition, once daily
Experimental: as §1
(§2) A laquinimod composition as described herein is administered to a subject suffering from an OID. The administration of the composition is effective to treat the subject suffering from the OID. The administration of the composition is also effective to reduce intraocular inflammation in the subject.

[4] = test system: S-antigen-induced experimental autoimmune uveitis (EAU) in rats; test: S-antigen-induced experimental autoimmune uveitis in rats (EAU model), slit lamp clinical score (Example 1); format: in vivo, rat; settings: for Slit lamp ocular evaluation of both eyes, Incidence % / Slit lamp ocular evaluation of both eyes, mean clinical score: 10 μl once daily both eyes from Day 7; for Slit lamp ocular evaluation of both eyes, mean clinical score: score 0-6
Experimental: A 1% (10 mg/ml) and a 5% (50 mg/ml) solution of laquinimod sodium were prepared in sterile water. Dissolution of laquinimod powder was achieved by shaking, stirring, or low-speed vortex. The solutions were stored for up to 2 weeks at 2-8° C. and up to 24 hours at room temperature. Laquinimod solutions were prepared under light protection and were protected from light for the duration of the experiment. […] One 100 mg/4 ml in olive oil dose was prepared every 2 days and stored at room temperature.
Thirty two female albino Lewis rats were randomly divided into four (4) groups of eight (8) rats. Ocular inflammation was induced at Day 1 by injection of 100 μl of human S-antigen (100 μg) in Freud's complete adjuvant (4 mg/ml) into the footpad of each rat, and an intraperitoneal injection of 1 μg/100 μl pertussis toxin.
Beginning on Day 7 until the end of the study, each animal group was treated with a test solution in both eyes as shown in Table 1:
Both eyes of each rat were examined with a slit-lamp at baseline and then every 2 days from Day 10 to the end of the study. Fifteen minutes prior to each examination, 10 μl of Mydriaticum (0.5% tropicamide) was instilled for papillary dilatation.
The effect of test material and reference material on ocular inflammation was measured with slit lamp evaluation and scored using the clinical scoring as shown in Table 3: […]

[5] = test system: subject suffering from bacterial conjunctivitis; test: Laquinimod for treating bacterial conjunctivitis (Example 5); format: in vivo; settings: laquinimod composition, once daily
Experimental: as §1
as §2, with “bacterial conjunctivitis.” for “an OID.”, “bacterial conjunctivitis.” for “the OID.”

CCN(C(=O)c1c(O)c2c(Cl)cccc2n(C)c1=O)c1ccccc1 [Laquinimod, laquinimod]
treat the subject suffering from allergic conjunctivitis [1]: effective | inhibit late ocular anaphylaxis in the subject ([1]; allergic conjunctivitis): effective | reduce eosinophil infiltration into the conjunctiva of the subject ([1]; allergic conjunctivitis): effective | reduce intraocular inflammation in the subject ([1]; allergic conjunctivitis): effective | % Inhibition of clinical score on Day 16 ([2]; 1% PO): 24% | % Inhibition of clinical score on Day 16 ([2]; 1% eye drops): −75% | % Inhibition of clinical score on Day 16 ([2]; 5% PO): 39% | % Inhibition of clinical score on Day 16 ([2]; 5% eye drops): 31% | treat the subject suffering from the OID [3]: effective | reduce intraocular inflammation in the subject ([3]; OID): effective | Slit lamp ocular evaluation of both eyes, Incidence % ([4]; 1% Laquinimod, Baseline): 0.0% | Slit lamp ocular evaluation of both eyes, mean clinical score ([4]; 1% Laquinimod, Baseline): 0.0 | Slit lamp ocular evaluation of both eyes, Incidence % ([4]; 1% Laquinimod, Day 10): 6.3% | Slit lamp ocular evaluation of both eyes, mean clinical score ([4]; 1% Laquinimod, Day 10): 0.1 | Slit lamp ocular evaluation of both eyes, Incidence % ([4]; 1% Laquinimod, Day 12): 6.3% | Slit lamp ocular evaluation of both eyes, mean clinical score ([4]; 1% Laquinimod, Day 12): 0.1 | Slit lamp ocular evaluation of both eyes, Incidence % ([4]; 1% Laquinimod, Day 14): 18.8% | Slit lamp ocular evaluation of both eyes, mean clinical score ([4]; 1% Laquinimod, Day 14): 0.8 | Slit lamp ocular evaluation of both eyes, Incidence % ([4]; 1% Laquinimod, Day 16): 31.3% | Slit lamp ocular evaluation of both eyes, mean clinical score ([4]; 1% Laquinimod, Day 16): 1.3 | Slit lamp ocular evaluation of both eyes, mean clinical score ([4]; 1% Laquinimod, Day 16, listed as laquinimod): 1.3±2.1 | Slit lamp ocular evaluation of both eyes, Incidence % ([4]; 5% Laquinimod, Baseline): 0.0% | Slit lamp ocular evaluation of both eyes, mean clinical score ([4]; 5% Laquinimod, Baseline): 0.0 | Slit lamp ocular evaluation of both eyes, Incidence % ([4]; 5% Laquinimod, Day 10): 0.0% | Slit lamp ocular evaluation of both eyes, mean clinical score ([4]; 5% Laquinimod, Day 10): 0.0 | Slit lamp ocular evaluation of both eyes, Incidence % ([4]; 5% Laquinimod, Day 12): 0.0% | Slit lamp ocular evaluation of both eyes, mean clinical score ([4]; 5% Laquinimod, Day 12): 0.0 | Slit lamp ocular evaluation of both eyes, Incidence % ([4]; 5% Laquinimod, Day 14): 6.3% | Slit lamp ocular evaluation of both eyes, mean clinical score ([4]; 5% Laquinimod, Day 14): 0.3 | Slit lamp ocular evaluation of both eyes, Incidence % ([4]; 5% Laquinimod, Day 16): 12.5% | Slit lamp ocular evaluation of both eyes, mean clinical score ([4]; 5% Laquinimod, Day 16): 0.6 | Slit lamp ocular evaluation of both eyes, mean clinical score ([4]; 5% Laquinimod, Day 16, listed as laquinimod): 0.6±1.5 | rats tested that demonstrated no intraocular inflammation ([4]; 5% laquinimod solution once per day, Day 16): Six out of eight | treat the subject suffering from bacterial conjunctivitis [5]: effective | reduce intraocular inflammation in the subject ([5]; bacterial conjunctivitis): effective
